Structures can show the parent of a compound that is named as a salt.
Experiments:
DED mice [1] = assay: Mouse model of DED, topical NK1R antagonist: flow cytometry of cornea, draining lymph nodes and conjunctivae; type: in vivo, C57BL/6 mice; settings: topical 1 μg/μl three times per day, day 14; for frequencies of MHC-II^hi CD11b^+ cells in the cornea: day 4 to 14; for frequencies of TH17 cells in the DLNs / frequencies of mature MHC-II^hi CD11b^+ cells in the DLNs / level of MHC-II expression by CD11b^+ cells in the DLNs: vs PBS
Description: (§1) Induction of Dry Eye Disease (DED): DED was induced by housing the mice in a low-humidity (relative humidity: <20%) controlled environment chamber (CEC) with constant airflow of 15 L/min and temperature of 21 to 23° C. for 14 days. Age- and sex-matched mice housed in room air conditions served as controls. Corneal epithelial disease was evaluated using fluorescein (Sigma-Aldrich) staining and scored using the National Eye Institute grading system (NEI, Bethesda, Md.; Chen Y. et al. IFN-gamma-Expressing TH17 Cells Are Required for Development of Severe Ocular Surface Autoimmunity. J Immunol 2017, 199:1163-9). 1 μl of 2.5% fluorescein was applied into the lateral conjunctival sac of the mice and after 3 minutes corneas were examined with a slit lamp biomicroscope under cobalt blue light. Punctate staining was recorded in a masked fashion with the standard National Eye Institute grading system of 0-3 for each of the five areas of the cornea.
Topical Treatment with NK1R Antagonist: Mice were assigned to one of four groups (n=5 each). 1 μg/μl of NK1R antagonists CP-99,994, L-733,060 (R&D systems, Minneapolis, MN) or PBS was administered topically three times per day from day 4 to day 14 after DED induction. Untreated DED mice served as controls.
Single Cell Suspension Preparation and Flow Cytometry: Submandibular and cervical draining lymph nodes (DLNs) were harvested and single cell suspensions were prepared. Cells were stimulated with phorbol 12-myristate 13-acetate (PMA, 50 ng/mL; Sigma-Aldrich) and Ionomycin (500 ng/mL; Sigma-Aldrich) for 6 hours in the presence of a commercial protein transport inhibitor (0.7 μL/100 μL media, Golgistop; BD Biosciences, San Jose, Calif.). Conjunctivae were harvested by lifting at the junction of bulbar and palpebral conjunctiva and dissecting along both bulbar and palpebral insertion points (Vannas Scissors; Storz, Bausch & Lomb). Conjunctiva samples were cultured in RPMI (Thermo Fisher Scientific, Waltham, Mass.) supplemented with 10% fetal bovine serum (FBS) and stimulated with PMA (50 ng/mL; Sigma-Aldrich) and Ionomycin (500 ng/mL; Sigma-Aldrich) in the presence of a protein transport inhibitor (0.7 μL/100 μL media, Golgistop; BD Biosciences) at 37° C. for 24 hours. Harvested corneas were digested in RPMI media containing 2 mg/ml collagenase type IV (Sigma-Aldrich) and 2 mg/ml DNase I (Roche) for 1 h at 37° C. The suspension was then filtered through a 70-μm cell strainer. Single-cell suspensions of DLN and cornea were stained with the following antibodies: Brilliant Violet 421-conjugated anti-mouse I-A/I-E (MHC-II), PE-conjugated anti-CD11c (BD Pharmingen, San Jose, Calif.), PerCP/Cy5.5-conjugated anti-CD11b, FITC-conjugated anti-CD4 (BioLegend, San Diego, Calif.), and PE-conjugated anti-interleukin 17A (eBioscience, San Diego, Calif.). Intranuclear staining with PE/Cy7-conjugated anti-Foxp3 (eBioscience) was performed after fixation and permeabilization of cells. Control samples were stained with appropriate isotype-matched antibodies. Stained cells were examined using an LSRII Flow Cytometer (BD Biosciences, Franklin Lakes, N.J., USA), and data were analyzed using commercial Summit software (Summit v4.3; Dako Colorado, Inc., Fort Collins, Colo.).

DED mice [2] = assay: Mouse model of DED, topical NK1R antagonist: corneal fluorescein staining (CFS); type: in vivo, C57BL/6 mice; settings: topical 1 μg/μl three times per day, day 4 to 14; at day 7, 10 and 14; vs untreated and PBS-treated; p<0.05
Excerpt: FIGS. 6A, 6B, 7C, 8A-8C, and 9A-9D show the results of evaluating the in vivo therapeutic efficacy of blocking SP signaling in animal models of DED and ocular redness. DED was induced by exposing wild-type mice to desiccating stress using a controlled environment chamber for 14 days. No any other manipulations were used in the model. After 4 days induction, a clinical overt disease developed in mice (art-recognized model) and then a topical NK1R antagonist of either CP-99,994 or L-733,060, 3×/day, started and lasted for 10 days (until day 14). Untreated or PBS-treated mice serve as controls. Clinical severity of the disease was evaluated by clinical fluorescein scoring (CFS) using the National Eye Institute/Industry NEI grading scheme. […]
Induction of Dry Eye Disease (DED): DED was induced by housing the mice in a low-humidity (relative humidity: <20%) controlled environment chamber (CEC) with constant airflow of 15 L/min and temperature of 21 to 23° C. for 14 days. […] Corneal epithelial disease was evaluated using fluorescein (Sigma-Aldrich) staining and scored using the National Eye Institute grading system (NEI, Bethesda, Md.; Chen Y. et al. IFN-gamma-Expressing TH17 Cells Are Required for Development of Severe Ocular Surface Autoimmunity. J Immunol 2017, 199:1163-9). […]

IL-17 = assay: Mouse model of DED, topical NK1R antagonist: real-time PCR of conjunctivae; type: in vivo, C57BL/6 mice; settings: topical 1 μg/μl three times per day; day 14; vs PBS; p=0.001
Description: as §1, with “1 μl of 2.5% fluorescein was applied into the lateral conjunctival sac of the mice and after 3 minutes corneas were examined with a slit lamp biomicroscope under cobalt blue light.” left out, “cornea. […]” for “cornea.”
Real-Time PCR: Bulbar and palpebral conjunctiva, cornea and trigeminal ganglion were harvested from mice and stored in TRIzol reagent (Invitrogen, Carlsbad, Calif.) at −80° C. until RNA was isolated and reverse-transcribed using RNeasy micro kit (Qiagen, Valencia, Calif.) and SuperScript III kit (Invitrogen). […] Samples were analyzed using a real-time PCR system (LightCycler 480 II System; Roche Applied Science, Indianapolis, Ind.), and results were analyzed by the comparative threshold cycle method, using GAPDH as an internal control.

[3] = prevents use as an eye drop formulation; cited from earlier work
ocular redness [4] = assay: Rabbit model of non-allergic (non-infectious) ocular redness induced by dapiprazole, Ocular Redness Index (ORI); type: in vivo
Excerpt: (§2) An Image J-based, objective quantification method of ocular redness severity was developed without relying on ophthalmologists' subjective scoring (Amparo, et al. “The Ocular Redness Index: A Novel Automated Method for Measuring Ocular Injection.” Investigative Ophthalmology & Visual Science, 2013, pp. Quick submit: 2017-06-18T21:14:33-0400). This digital scoring method automatically analyzes patient eye images and gives the score as Ocular Redness Index (ORI), which ranges on a continuous centesimal scale from 0 to 100, with 100 the most severe redness. This method has been used in the animal models of ocular redness to evaluate the severity of redness.
(§3) The results obtained can be seen in FIGS. 10-14. In the evaluation of ocular redness in animal models using Ocular Redness Index (ORI) with Image J the following steps. Step 1: The conjunctival image was captured by means of a digital camera and was recorded as an RGB color JPEG image (3264×2448 pixels). […] Step 3: An ROI (Region Of Interest, area inside the yellow circle) was selected as the evaluation area by user, and the program read the red-green-blue (RGB) values of each pixel, converting it to huesaturation-value (HSV) space, and ultimately converted these values into a numeric centesimal value for redness in the selected area automatically. […]

ocular redness [5] = assay: Guinea pig model of allergic ocular redness induced by histamine, Ocular Redness Index (ORI); type: in vivo; settings: topical 1.0 mg/ml with 1.5 mg/ml histamine instillation, 20 μl; 1 hour; vs untreated induced control
Excerpt: as §2, §3

[6] = system: corneal epithelial wound healing; settings: subconjunctival injection, diabetic mice; cited from earlier work

Compound | frequencies of MHC-II^hi CD11b^+ cells in the cornea (DED mice [1]) | frequencies of TH17 cells in the DLNs (DED mice [1]) | frequencies of mature MHC-II^hi CD11b^+ cells in the DLNs (DED mice [1]) | level of MHC-II expression by CD11b^+ cells in the DLNs (DED mice [1]) | CFS scores and DED severity (DED mice [2]) | mRNA expression levels of IL-17 in conjunctivae (IL-17) | further results
COc1ccccc1CN[C@H]1CCCN[C@H]1c1ccccc1 [CP-99,994, (2S,3S)-N-[(2-Methoxyphenyl)methyl]-2-phenyl-3-piperidinamine dihydrochloride] | significantly lower | significantly decreased | significant decrease | significant decrease | significantly reduced CFS scores and DED severity | significant reduction | 
C[C@@H](O[C@H]1OCCN(Cc2n[nH]c(=O)[nH]2)[C@H]1c1ccc(F)cc1)c1cc(C(F)(F)F)cc(C(F)(F)F)c1 [MK-869, 5-[[(2R,3S)-2-[(1R)-[3,5-Bis(trifluoromethyl)phenyl]ethoxy]-3-(4-fluorophenyl)-4-morpholinylinyl]methyl]-1,2-dihydro-3H-1,2,4-triazol-3-one] |  |  |  |  |  |  | water solubility [3]: Poor water solubility
Cc1ccccc1N1CCN(CCc2nnc3n2CCCC3)CC1 [dapiprazole] |  |  |  |  |  |  | change in ORI score after induction (ocular redness [4]; 5% dapiprazole, 40 μl topical, series of increasing concentrations, 1-hour observation, vs PBS): highest increase in ORI score
Ic1ccccc1CN[C@@H]1C2CCN(CC2)[C@@H]1C(c1ccccc1)c1ccccc1 (racemic) [L-703,606] |  |  |  |  |  |  | ocular redness (change in ORI score) (ocular redness [4]; topical 1.0 mg/ml with 5% dapiprazole instillation, 40 μl, 1 hour, vs untreated induced control): rapidly and consistently ameliorating the ocular redness; ocular redness (change in ORI score) (ocular redness [5]): rapidly and consistently ameliorating the ocular redness
FC(F)(F)c1cc(CO[C@H]2CCCN[C@H]2c2ccccc2)cc(C(F)(F)F)c1 [L-733,060, (2S,3S)-3-[[3,5-bis(Trifluoromethyl)phenyl]methoxy]-2-phenylpiperidine hydrochloride] | significantly lower | significantly decreased | significant decrease | significant decrease | significantly reduced CFS scores and DED severity | significant reduction | protective role of SP on epithelial healing [6]: significantly inhibits the protective role of SP on epithelial healing
